{
  "source": "patent US20250288584A1",
  "about": "“COMBINATIONS COMPRISING POSITIVE ALLOSTERIC MODULATORS OR ORTHOSTERIC AGONISTS OF METABOTROPIC GLUTAMATERGIC RECEPTOR SUBTYPE 2 AND THEIR USE” (JANSSEN PHARMACEUTICA NV, priority 2014, published 2025)",
  "key": {"[1]": {"target": "mGlu5a (Homo sapiens, UniProt P41594)", "sequence (P41594 21-1180 isoform P41594-2)": "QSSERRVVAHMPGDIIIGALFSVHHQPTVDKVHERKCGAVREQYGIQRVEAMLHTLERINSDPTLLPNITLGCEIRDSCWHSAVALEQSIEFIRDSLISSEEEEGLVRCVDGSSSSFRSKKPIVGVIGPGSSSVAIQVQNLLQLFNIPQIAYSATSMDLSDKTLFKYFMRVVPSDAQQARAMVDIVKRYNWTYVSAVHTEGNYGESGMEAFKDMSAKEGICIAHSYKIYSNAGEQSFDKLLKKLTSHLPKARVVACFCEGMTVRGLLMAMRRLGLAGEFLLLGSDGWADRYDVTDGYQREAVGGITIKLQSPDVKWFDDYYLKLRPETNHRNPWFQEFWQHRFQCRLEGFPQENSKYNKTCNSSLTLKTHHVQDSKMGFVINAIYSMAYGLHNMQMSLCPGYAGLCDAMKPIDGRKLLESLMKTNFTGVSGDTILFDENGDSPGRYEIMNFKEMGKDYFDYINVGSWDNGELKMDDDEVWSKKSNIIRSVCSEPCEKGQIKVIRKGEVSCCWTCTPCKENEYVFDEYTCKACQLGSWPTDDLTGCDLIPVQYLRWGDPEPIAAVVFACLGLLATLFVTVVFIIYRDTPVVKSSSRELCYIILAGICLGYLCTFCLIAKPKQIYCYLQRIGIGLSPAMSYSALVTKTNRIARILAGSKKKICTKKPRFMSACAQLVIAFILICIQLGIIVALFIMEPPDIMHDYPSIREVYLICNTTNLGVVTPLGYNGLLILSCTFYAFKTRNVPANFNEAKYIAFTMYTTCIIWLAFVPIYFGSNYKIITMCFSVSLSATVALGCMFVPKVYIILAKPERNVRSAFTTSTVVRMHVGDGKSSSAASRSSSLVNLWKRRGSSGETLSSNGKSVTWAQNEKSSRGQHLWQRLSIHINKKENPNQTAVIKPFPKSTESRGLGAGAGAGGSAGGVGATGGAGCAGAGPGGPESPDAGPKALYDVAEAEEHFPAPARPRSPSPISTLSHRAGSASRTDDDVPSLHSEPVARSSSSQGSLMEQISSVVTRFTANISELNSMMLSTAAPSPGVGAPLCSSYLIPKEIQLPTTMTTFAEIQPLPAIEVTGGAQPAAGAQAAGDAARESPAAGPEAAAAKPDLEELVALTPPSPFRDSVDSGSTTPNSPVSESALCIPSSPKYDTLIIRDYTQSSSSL", "details": "cited from earlier work"}, "[2]": {"system": "corneal kindled seizures", "experiment": "Mouse corneal kindling model", "type": "in vivo, mice", "details": "100 mg/kg s.c.; Racine score 0-5", "method": "After the mice reached a stable kindled state, the test compound or vehicle was administered and, at the previously determined TPE, each animal was given the electrical stimulus indicated above. […] One dose of LEV and two doses of Co."}, "[3]": {"experiment": "Minimal motor impairment (rotarod)", "type": "in vivo, mice", "details": "for # rotarod motor impairment/# tested: 0.5 h", "method": "Acute MMI was assessed by a combination of direct observations of the animal for overt symptoms of the animal's neurological or muscular function. In mice, the rotarod procedure was used to disclose minimal muscular or neurological impairment. When a mouse is placed on a rod that rotates at a speed of 6 rpm, the animal can maintain its equilibrium for long periods of time. The animal was considered toxic if it fell off this rotating rod three times during a 1 min period.\nIn the determination of an ED50 or TD50 for each test compound, the first dose administered is usually the same dose as that used in a successful TPE determination.\nIf the initial dose employed was effective or toxic in more than 50% of animals, the next dose would be one-half that of the initial dose; if the initial dose was effective or toxic in less than 50% of animals, the following dose would be twice that of the initial dose. Third and fourth doses were selected to produce an evenly spaced dose response line. There should be a minimum of 4 points either including or lying between 0 and 100%."}, "[4]": {"target": "mGlu1a (Homo sapiens, UniProt Q13255)", "sequence (Q13255 19-1194)": "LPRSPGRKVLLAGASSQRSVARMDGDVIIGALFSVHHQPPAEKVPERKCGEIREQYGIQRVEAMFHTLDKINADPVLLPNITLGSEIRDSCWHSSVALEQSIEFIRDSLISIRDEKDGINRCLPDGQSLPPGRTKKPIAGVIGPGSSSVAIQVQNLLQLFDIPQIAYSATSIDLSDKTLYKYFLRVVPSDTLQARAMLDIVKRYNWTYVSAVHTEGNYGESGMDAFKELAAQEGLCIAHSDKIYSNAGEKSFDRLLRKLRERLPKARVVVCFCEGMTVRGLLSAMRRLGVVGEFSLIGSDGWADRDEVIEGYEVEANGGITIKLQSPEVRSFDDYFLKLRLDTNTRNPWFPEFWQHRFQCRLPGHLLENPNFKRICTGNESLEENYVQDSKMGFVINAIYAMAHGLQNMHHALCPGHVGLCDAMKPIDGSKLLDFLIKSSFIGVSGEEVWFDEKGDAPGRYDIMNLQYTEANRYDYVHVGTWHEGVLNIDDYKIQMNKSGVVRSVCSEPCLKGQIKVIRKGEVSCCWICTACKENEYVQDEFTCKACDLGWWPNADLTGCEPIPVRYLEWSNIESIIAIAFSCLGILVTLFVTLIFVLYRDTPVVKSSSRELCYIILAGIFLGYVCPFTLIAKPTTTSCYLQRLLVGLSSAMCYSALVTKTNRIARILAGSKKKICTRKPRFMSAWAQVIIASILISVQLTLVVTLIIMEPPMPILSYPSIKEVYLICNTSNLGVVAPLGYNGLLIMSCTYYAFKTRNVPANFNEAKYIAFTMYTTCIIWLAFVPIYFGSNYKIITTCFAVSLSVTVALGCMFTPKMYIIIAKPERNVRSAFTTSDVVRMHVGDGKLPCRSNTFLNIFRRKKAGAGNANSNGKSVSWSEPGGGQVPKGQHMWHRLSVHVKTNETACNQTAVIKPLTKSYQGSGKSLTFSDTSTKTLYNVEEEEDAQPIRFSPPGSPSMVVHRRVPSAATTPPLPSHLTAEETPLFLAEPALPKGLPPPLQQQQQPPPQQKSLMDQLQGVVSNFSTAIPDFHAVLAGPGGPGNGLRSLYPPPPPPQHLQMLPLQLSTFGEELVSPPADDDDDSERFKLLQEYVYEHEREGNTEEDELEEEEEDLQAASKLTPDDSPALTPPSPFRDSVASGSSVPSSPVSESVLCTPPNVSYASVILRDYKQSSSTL", "details": "cited from earlier work"}, "[5]": {"system": "6 Hz (32 mA) psychomotor seizures", "experiment": "6 Hz psychomotor seizure test, 32 mA (incl. TPE determination)", "type": "in vivo, mice", "details": "for # protected/# tested: 0.5 h", "method": "Test compounds were administered using an optimal fluid volume to body fluid ratio. Test compounds were administered to mice in a volume of 0.01 mL/g of body weight (White H. S., et al., General Principles: Experimental selection, quantification, and evaluation of antiepileptic drugs, in Antiepileptic Drugs, Fourth Edition, […], and B. S. Meldrum, Editors. 1995, Raven Press, Ltd.: New York, pp. 99-110). For subcutaneous (s.c.) administration, the test compounds were administered into a loose fold of skin along the back of the animal except compound 6-b, which was administered orally (p.o). […] The animals were maintained on an adequate diet (Prolab RMH 3000) and allowed free access to food and water, except during the short time they were removed from their cage for testing. Animals newly received in the laboratory were allowed sufficient time to correct for possible food and water restriction incurred during transit before being employed in testing. All mice were housed in plastic cages in specially constructed rooms with controlled humidity, exchange of air and controlled lighting (12 hours on-12 hours off). The animals were housed, fed, and handled in a manner consistent with the recommendations in the National Council Publication, “Guide for the Care and Use of Laboratory Animals”. In the determination of an ED50 or TD50 for each test compound, the first dose administered is usually the same dose as that used in a successful TPE determination. […] Third and fourth doses were selected to produce an evenly spaced dose response line. […] TPE was determined using the 6 Hz (32 mA) assay. […] The 6 Hz seizure test is used as a model of pharmacoresistant limbic seizures. […] Focal seizures were induced in mice via corneal stimulation (6 Hz, 0.2 msec rectangular pulse, 3 sec duration; Barton et al. 2001). Mice were tested at either 32 mA or 44 mA. […] The seizures that arise from corneal stimulation in this assay are characterized by a minimal clonic phase followed by stereotyped automatistic behaviors including stun, forelimb clonus, twitching of the vibrissae, and Straub-tail. Animals not displaying these behaviors were considered protected."}, "[6]": {"system": "6 Hz (44 mA) psychomotor seizures", "experiment": "6 Hz psychomotor seizure test, 44 mA (alone, combination with LEV, isobolographic study)", "type": "in vivo, mice", "in_short": "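Mice dosed s.c. or p.o. at 0.01 mL/g, alone or with LEV at fixed dose ratios proportional to ED50 values. Focal seizures induced by corneal stimulation (6 Hz, 0.2 msec pulse, 3 sec, 44 mA); animals without stun, forelimb clonus, vibrissae twitch or Straub-tail were counted as protected. ED50 values derived, with combinations analysed isobolographically.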"}},
  "data": [
    {"smiles": "N[C@@]1(C(=O)O)CS(=O)(=O)[C@H]2[C@H](C(=O)O)[C@H]21", "note": "[LY-404039, reference compound]", "values": [
      {"measurement": "activity at mGlu5a", "setting": "[1]", "result": "no activity"},
      {"measurement": "Seizure score (dose) Corneal kindling", "setting": "[2]", "result": 3.1},
      {"measurement": "# rotarod motor impairment/# tested", "setting": "[3]; 5 mg/kg s.c., 32 mA group", "result": "1/16"},
      {"measurement": "# rotarod motor impairment/# tested", "setting": "[3]; 5 mg/kg s.c., 44 mA group", "result": "0/16"},
      {"measurement": "# rotarod motor impairment/# tested", "setting": "[3]; 10 mg/kg s.c., 32 mA group", "result": "0/8"},
      {"measurement": "# rotarod motor impairment/# tested", "setting": "[3]; 10 mg/kg s.c., 44 mA group", "result": "1/8"},
      {"measurement": "# rotarod motor impairment/# tested", "setting": "[3]; 20 mg/kg s.c., 32 mA group", "result": "1/8"},
      {"measurement": "# rotarod motor impairment/# tested", "setting": "[3]; 20 mg/kg s.c., 44 mA group", "result": "1/8"},
      {"measurement": "# rotarod motor impairment/# tested", "setting": "[3]; 40 mg/kg s.c., 32 mA group", "result": "1/8"},
      {"measurement": "# rotarod motor impairment/# tested", "setting": "[3]; 40 mg/kg s.c., 44 mA group", "result": "2/8"},
      {"measurement": "mice with impairment out of total", "setting": "[3]; 40 mg/kg s.c., 32 mA and 44 mA groups combined", "result": "^a40 mg/kg-3 out of 16 total (32 mA and 44 mA combined) with impairment."},
      {"measurement": "TD50 at 0.5 h", "setting": "[3]; mouse, in vivo, sc, rotarod", "result": "> 40", "unit": "mg/kg"},
      {"measurement": "activity at mGlu1a", "setting": "[4]", "result": "no activity"},
      {"measurement": "# protected/# tested", "setting": "[5]; 5 mg/kg s.c.", "result": "1/16"},
      {"measurement": "# protected/# tested", "setting": "[5]; 10 mg/kg s.c.", "result": "5/8"},
      {"measurement": "# protected/# tested", "setting": "[5]; 20 mg/kg s.c.", "result": "6/8"},
      {"measurement": "# protected/# tested", "setting": "[5]; 40 mg/kg s.c.", "result": "8/8"},
      {"measurement": "ED50", "setting": "[5]; Mus musculus, sc, at TPE, read-out: ED50 (95% CI) 32 mA", "result": 10.2, "unit": "mg/kg"},
      {"measurement": "activity in the 6 Hz 32 mA test", "setting": "[5]; result in words", "result": "activity in both 6 Hz tests was seen"},
      {"measurement": "ED50 (95% CI) 32 mA", "setting": "[5]; s.c., at TPE", "result": "ED50 (95% CI): 10.9 mg/kg (7.8 to 15.9)"},
      {"measurement": "activity when administered alone", "setting": "[6]; 5 mg/kg s.c.", "result": "^bLY404039 (s.c.) 5 mg/kg tested in combination with LEV (i.p.); LY404039 5 mg/kg was not active when administered alone."},
      {"measurement": "responders at 5 mg/kg", "setting": "[6]; Mus musculus, sc, 0.5 h, 5 mg/kg s.c., 0.5 h, read-out: # protected/# tested", "result": 0, "unit": "%"},
      {"measurement": "responders at 10 mg/kg", "setting": "[6]; Mus musculus, sc, 0.5 h, 10 mg/kg s.c., 0.5 h, read-out: # protected/# tested (converted)", "result": 37.5, "unit": "%"},
      {"measurement": "responders at 20 mg/kg", "setting": "[6]; Mus musculus, sc, 0.5 h, 20 mg/kg s.c., 0.5 h, read-out: # protected/# tested (converted)", "result": 87.5, "unit": "%"},
      {"measurement": "responders at 40 mg/kg", "setting": "[6]; Mus musculus, sc, 0.5 h, 40 mg/kg s.c., 0.5 h, read-out: # protected/# tested (converted)", "result": 87.5, "unit": "%"},
      {"measurement": "ED50", "setting": "[6]; Mus musculus, sc, at TPE, compound alone, read-out: ED50 (95% CI) 44 mA", "result": 14.1, "unit": "mg/kg"},
      {"measurement": "activity in the 6 Hz 44 mA test", "setting": "[6]; result in words", "result": "activity in both 6 Hz tests was seen"},
      {"measurement": "pharmacodynamic interaction with LEV in the 6 Hz model", "setting": "[6]; result in words", "result": "synergy was seen"}
    ]}
  ]
}
